# From patent US6358885B1, “Substituted phenylheterocyclic herbicides” (Mississippi State University, priority 1992, dated 2002)
# Columns and labels:
# cocklebur = experiment: Test B preemergence/postemergence greenhouse plant response rating 0 to 10; type: in vivo, Xanthium pensylvanicum; conditions: 0 to 10 scale
# Outline: (§1)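 Test chemicals were sprayed onto freshly planted seed and, concurrently, onto young plants between the one and four leaf stage. After a twelve- to sixteen-day greenhouse period, each species was visually compared with untreated controls.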
# rice [1] = experiment: as above; type: in vivo, Oryza sativa; conditions: 0 to 10 scale
# Outline: as §1
# soybean = experiment: as above; type: in vivo, Glycine max; conditions: 0 to 10 scale
# Outline: as §1
# wild buckwheat = experiment: as above; type: in vivo, Polygonum convolvulus; conditions: 0 to 10 scale
# Outline: as §1
# purple nutsedge = experiment: as above; type: in vivo, Cyperus rotundus; conditions: 0 to 10 scale
# Outline: as §1
# bedstraw = experiment: Test C preemergence/postemergence greenhouse plant response rating 0 to 100; type: in vivo, Galium aparine; conditions: POSTEMERGENCE
# Outline: (§2)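 Compounds in non-phytotoxic solvent applied preemergence to sandy loam one day after planting, postemergence at the 1–4 leaf stage, or to ~2.5 cm floodwater over silt loam.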
# blackgrass = experiment: as above; type: in vivo, Alopecurus myosuroides; conditions: POSTEMERGENCE; for Plant response rating, Blackgrass: 0 to 100 scale
# Outline: as §2
# chickweed = experiment: as above; type: in vivo, Stellaria media; conditions: POSTEMERGENCE; for Plant response rating, Chickweed: 0 to 100 scale
# Outline: as §2
# corn = experiment: as above; type: in vivo, Zea mays; conditions: POSTEMERGENCE; for Plant response rating, Corn: 0 to 100 scale
# Outline: as §2
# cotton = experiment: as above; type: in vivo, Gossypium hirsutum; conditions: POSTEMERGENCE; for Plant response rating, Cotton: 0 to 100 scale
# Outline: as §2
# giant foxtail = experiment: as above; type: in vivo, Setaria faberii; conditions: POSTEMERGENCE; for Plant response rating, Giant foxtail: 0 to 100 scale
# Outline: as §2
# pigweed = experiment: as above; type: in vivo, Amaranthusretroflexus; conditions: POSTEMERGENCE; for Plant response rating Pigweed: 0 to 100 scale
# Outline: as §2
# sugar beet = experiment: as above; type: in vivo, Beta vulgaris; conditions: POSTEMERGENCE; for Plant response rating, Sugar beet: 0 to 100 scale
# Outline: as §2
# velvetleaf = experiment: as above; type: in vivo, Abutilon theophrasti; conditions: POSTEMERGENCE; for Plant response rating, Velvetleaf: 0 to 100 scale
# Outline: as §2
# rice [2] = experiment: Test C flood test plant response rating 0 to 100; type: in vivo, Oryza sativa; conditions: for Plant response rating (0 to 100), Rice Japonica: under POSTEMERGENCE head (flood test species); for Plant response rating Rice Japonica: flood test species listed under POSTEMERGENCE, 0 to 100 scale
# Outline: as §2
# umbrella sedge = experiment: Test C flood test plant response rating 0 to 100; type: in vivo, Cyperus difformis; conditions: for Plant response rating (0 to 100), Umbrella sedge: under POSTEMERGENCE head (flood test species); for Plant response rating Umbrella sedge: flood test species listed under POSTEMERGENCE, 0 to 100 scale
# Outline: as §2
# duck salad = experiment: Test C flood test plant response rating 0 to 100; type: in vivo, Heteranthera limosa; conditions: for Plant response rating (0 to 100), Duck salad: under POSTEMERGENCE head (flood test species); for Plant response rating Duck salad: flood test species listed under POSTEMERGENCE, 0 to 100 scale
# Outline: as §2
compound,measurement,setting,value
C=C(Cl)COc1cc(-c2nn3c(c2Cl)CCCC3)c(F)cc1Cl [Compound 40],"Plant response rating, Cocklebur","cocklebur; POSTEMERGENCE, Rate 50 g/ha",5
same,"Plant response rating, Cocklebur","cocklebur; POSTEMERGENCE, Rate 200 g/ha",10
same,"Plant response rating, Cocklebur","cocklebur; PREEMERGENCE, Rate 50 g/ha",5
same,"Plant response rating, Cocklebur","cocklebur; Rate 200 g/ha, PREEMERGENCE",8
same,"Plant response rating, Rice","rice [1]; POSTEMERGENCE, Rate 50 g/ha",5
same,"Plant response rating, Rice","rice [1]; PREEMERGENCE, Rate 50 g/ha",0
same,"Plant response rating, Rice","rice [1]; Rate 200 g/ha, POSTEMERGENCE",5
same,"Plant response rating, Rice","rice [1]; Rate 200 g/ha, PREEMERGENCE",0
same,"Plant response rating, Soybean","soybean; POSTEMERGENCE, Rate 50 g/ha",5
same,"Plant response rating, Soybean","soybean; PREEMERGENCE, Rate 50 g/ha",0
same,"Plant response rating, Soybean","soybean; Rate 200 g/ha, POSTEMERGENCE",8
same,"Plant response rating, Soybean","soybean; Rate 200 g/ha, PREEMERGENCE",2
same,"Plant response rating, Wild buckwheat","wild buckwheat; POSTEMERGENCE, Rate 50 g/ha",9
same,"Plant response rating, Wild buckwheat","wild buckwheat; Rate 200 g/ha, POSTEMERGENCE",10
same,"Plant response rating, Wild buckwheat","wild buckwheat; Rate 200 g/ha, PREEMERGENCE",9
same,"Plant response rating, Nutsedge","purple nutsedge; POSTEMERGENCE, Rate 50 g/ha",2
same,"Plant response rating, Nutsedge","purple nutsedge; PREEMERGENCE, Rate 50 g/ha",0
same,"Plant response rating, Nutsedge","purple nutsedge; Rate 200 g/ha, POSTEMERGENCE",4
same,"Plant response rating, Nutsedge","purple nutsedge; Rate 200 g/ha, PREEMERGENCE",0
same,"Plant response rating, Bedstraw","bedstraw; 125 g/ha, 0 to 100 scale",60
same,"Plant response rating (0 to 100), Bedstraw",bedstraw; Rate 16 g/ha,30
same,"Plant response rating (0 to 100), Bedstraw",bedstraw; Rate 31 g/ha,30
same,"Plant response rating, Blackgrass",blackgrass; 62 g/ha,50
same,"Plant response rating, Blackgrass",blackgrass; 125 g/ha,70
same,"Plant response rating (0 to 100), Blackgrass",blackgrass; Rate 16 g/ha,20
same,"Plant response rating (0 to 100), Blackgrass",blackgrass; Rate 31 g/ha,30
same,"Plant response rating, Chickweed",chickweed; 62 g/ha,60
same,"Plant response rating, Chickweed",chickweed; 125 g/ha,90
same,"Plant response rating (0 to 100), Chickweed",chickweed; Rate 16 g/ha,30
same,"Plant response rating (0 to 100), Chickweed",chickweed; Rate 31 g/ha,30
same,"Plant response rating, Corn",corn; 62 g/ha,30
same,"Plant response rating, Corn",corn; 125 g/ha,30
same,"Plant response rating (0 to 100), Corn",corn; Rate 16 g/ha,30
same,"Plant response rating (0 to 100), Corn",corn; Rate 31 g/ha,30
same,"Plant response rating, Cotton",cotton; 62 g/ha,100
same,"Plant response rating, Cotton",cotton; 125 g/ha,100
same,"Plant response rating (0 to 100), Cotton",cotton; Rate 16 g/ha,100
same,"Plant response rating (0 to 100), Cotton",cotton; Rate 31 g/ha,100
same,"Plant response rating, Giant foxtail",giant foxtail; 62 g/ha,60
same,"Plant response rating, Giant foxtail",giant foxtail; 125 g/ha,70
same,"Plant response rating (0 to 100), Giant foxtail",giant foxtail; Rate 16 g/ha,30
same,"Plant response rating (0 to 100), Giant foxtail",giant foxtail; Rate 31 g/ha,40
same,Plant response rating Pigweed,pigweed; 62 g/ha,100
same,Plant response rating Pigweed,pigweed; 125 g/ha,100
same,"Plant response rating (0 to 100), Pigweed",pigweed; Rate 16 g/ha,90
same,"Plant response rating (0 to 100), Pigweed",pigweed; Rate 31 g/ha,95
same,"Plant response rating, Sugar beet",sugar beet; 62 g/ha,100
same,"Plant response rating, Sugar beet",sugar beet; 125 g/ha,100
same,"Plant response rating (0 to 100), Sugar beet",sugar beet; Rate 16 g/ha,100
same,"Plant response rating (0 to 100), Sugar beet",sugar beet; Rate 31 g/ha,100
same,"Plant response rating, Velvetleaf",velvetleaf; 62 g/ha,100
same,"Plant response rating, Velvetleaf",velvetleaf; 125 g/ha,100
same,"Plant response rating (0 to 100), Velvetleaf",velvetleaf; Rate 16 g/ha,90
same,"Plant response rating (0 to 100), Velvetleaf",velvetleaf; Rate 31 g/ha,90
same,"Plant response rating (0 to 100), Rice Japonica",rice [2]; Rate 16 g/ha,35
same,"Plant response rating (0 to 100), Rice Japonica",rice [2]; Rate 31 g/ha,35
same,Plant response rating Rice Japonica,rice [2]; 62 g/ha,40
same,Plant response rating Rice Japonica,rice [2]; 125 g/ha,40
same,"Plant response rating (0 to 100), Umbrella sedge",umbrella sedge; Rate 16 g/ha,0
same,"Plant response rating (0 to 100), Umbrella sedge",umbrella sedge; Rate 31 g/ha,0
same,Plant response rating Umbrella sedge,umbrella sedge; 62 g/ha,10
same,Plant response rating Umbrella sedge,umbrella sedge; 125 g/ha,70
same,"Plant response rating (0 to 100), Duck salad",duck salad; Rate 16 g/ha,0
same,"Plant response rating (0 to 100), Duck salad",duck salad; Rate 31 g/ha,65
same,Plant response rating Duck salad,duck salad; 62 g/ha,80
same,Plant response rating Duck salad,duck salad; 125 g/ha,85
